Measurements from PubChem BioAssay AID1919003 (Molecular Pharmacology Branch, DTP, NCI, 2023).

System: 786-0 complex spheroids with HUVEC/MSC, growth % test/control
Experiment: Anticancer human tumor 786-0 cell line growth inhibition [AhR];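 note: compound exposure lasted seven days before the read-out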
Settings: for IC50: curve of first compound; for viability, T/C: stronger effect = lower value
Summary of the method: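 Spheroids combined tumor cells with HUVEC endothelial cells and human MSCs as stroma. AhR antagonists were paired with standard or investigational drugs, each dosed in half-log steps down from near clinical Cmax, or from 10 microM where Cmax was unknown.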

[1] = second compound 0.1 µM, first compound 0.0316 µM
[2] = second compound 0.1 µM, first compound 0.1 µM
[3] = second compound 0.1 µM, first compound 0.316 µM
[4] = second compound 0.1 µM, first compound 1 µM
[5] = second compound 0.1 µM, first compound 3.16 µM
[6] = second compound 0.1 µM, first compound 10 µM
[7] = second compound 0.316 µM, first compound 0.0316 µM
[8] = second compound 0.316 µM, first compound 0.1 µM
[9] = second compound 0.316 µM, first compound 0.316 µM
[10] = second compound 0.316 µM, first compound 1 µM
[11] = second compound 0.316 µM, first compound 3.16 µM
[12] = second compound 0.316 µM, first compound 10 µM
[13] = second compound 1 µM, first compound 0.0316 µM
[14] = second compound 1 µM, first compound 0.1 µM
[15] = second compound 1 µM, first compound 0.316 µM
[16] = second compound 1 µM, first compound 1 µM
[17] = second compound 1 µM, first compound 3.16 µM
[18] = second compound 1 µM, first compound 10 µM
[19] = second compound 3.16 µM, first compound 0.0316 µM
[20] = second compound 3.16 µM, first compound 0.1 µM
[21] = second compound 3.16 µM, first compound 0.316 µM
[22] = second compound 3.16 µM, first compound 1 µM
[23] = second compound 3.16 µM, first compound 3.16 µM
[24] = second compound 3.16 µM, first compound 10 µM
[25] = second compound 10 µM, first compound 0.0316 µM
[26] = second compound 10 µM, first compound 0.1 µM
[27] = second compound 10 µM, first compound 0.316 µM
[28] = second compound 10 µM, first compound 1 µM
[29] = second compound 10 µM, first compound 3.16 µM
[30] = second compound 10 µM, first compound 10 µM

Compound	IC50 (second compound 0.1 µM)	IC50 (second compound 0.316 µM)	IC50 (second compound 1 µM)	IC50 (second compound 3.16 µM)	IC50 (second compound 10 µM)	viability, T/C [1]	viability, T/C [2]	viability, T/C [3]	viability, T/C [4]	viability, T/C [5]	viability, T/C [6]	viability, T/C [7]	viability, T/C [8]	viability, T/C [9]	viability, T/C [10]	viability, T/C [11]	viability, T/C [12]	viability, T/C [13]	viability, T/C [14]	viability, T/C [15]	also measured
CC(C)c1c(-c2ccccc2)nc2c(C#N)c[nH]n2c1=O + Cc1cncc(-c2nc(NCCc3c[nH]c4ccccc34)c3ncn(C(C)C)c3n2)c1	> 10 µM	> 10 µM	> 10 µM	> 10 µM	< 0.0316 µM	115%	121%	112%	123%	113%	132%	120%	118%	118%	124%	115%	104%	114%	107%	114%	viability, T/C [16]: 108%; viability, T/C [17]: 116%; viability, T/C [18]: 112%; viability, T/C [19]: 82.9%; viability, T/C [20]: 71.8%; viability, T/C [21]: 78.2%; viability, T/C [22]: 78%; viability, T/C [23]: 67.2%; viability, T/C [24]: 76.1%; viability, T/C [25]: 7.79%; viability, T/C [26]: 5.72%; viability, T/C [27]: 9.94%; viability, T/C [28]: 8.21%; viability, T/C [29]: 8.12%; viability, T/C [30]: 9.28%
COc1ccc([C@@H](O)c2cc(-c3ncnc4cc(N5CCOCC5)ccc34)c(F)cc2Cl)nn1 + Cc1cncc(-c2nc(NCCc3c[nH]c4ccccc34)c3ncn(C(C)C)c3n2)c1	> 10 µM	> 10 µM	> 10 µM	> 10 µM	< 0.0316 µM	103%	111%	111%	112%	109%	89.9%	112%	111%	114%	120%	103%	95.4%	107%	103%	96.4%	viability, T/C [16]: 104%; viability, T/C [17]: 103%; viability, T/C [18]: 84.8%; viability, T/C [19]: 73%; viability, T/C [20]: 73.3%; viability, T/C [21]: 66.4%; viability, T/C [22]: 62.7%; viability, T/C [23]: 61.2%; viability, T/C [24]: 61.5%; viability, T/C [25]: 6.44%; viability, T/C [26]: 5.3%; viability, T/C [27]: 8.33%; viability, T/C [28]: 5.44%; viability, T/C [29]: 5.99%; viability, T/C [30]: 9.73%
